According to the NIST ThermoML archive (doi:10.1016/j.jct.2007.02.009):
Values joined by “and” are separate entries in the source; they are usually repeats but may differ in a detail not shown here. Identical values can stand only once.

Assay: molar heat capacity at constant pressure
Settings: 101.33 kPa

CN(C)C=O [dimethylformamide]
Crystal
Settings | molar heat capacity at constant pressure [J/K/mol]
140 K | 81.78
146.91 K | 84.72
149.76 K | 85.72
150 K | 85.56
152.73 K | 86.72
155.69 K | 87.47
158.66 K | 88.47
160 K | 89.05
161.62 K | 89.38
164.59 K | 90.46
167.56 K | 91.54
170 K | 92.62
170.53 K | 92.79
173.49 K | 94.53
178.4 K | 96.61
180 K | 96.36
184.4 K | 99.44
184.65 K | 101.2
190 K | 100.5
191.1 K | 105.5
191.8 K | 105
198.9 K | 124.1
200 K | 104.6
200.5 K | 130.6
201.1 K | 139.5
201.51 K | 150.5
210 K | 107.7
212.86 K | 108.1

Liquid, Vacuum adiabatic calorimetry
Settings | molar heat capacity at constant pressure
212.86 K | 141.4 J/K/mol
213 K | 142.4 J/K/mol
215.3 K | 141.5 J/K/mol
216.03 K | 141.8 J/K/mol
217.78 K | 141.7 J/K/mol
217.98 K | 142 J/K/mol
220 K | 141.9 J/K/mol
220.95 K | 141.8 J/K/mol
222.56 K | 142 J/K/mol
223.91 K | 142.2 J/K/mol
225.22 K | 142.2 J/K/mol
226.86 K | 142.2 J/K/mol
228.18 K | 142.4 J/K/mol
229.81 K | 142.5 J/K/mol
230 K | 142.5 J/K/mol
230.54 K | 142.5 J/K/mol
231.13 K | 142.7 J/K/mol
232.77 K | 142.5 J/K/mol
233.19 K | 142.9 J/K/mol
235.55 K | 142.5 J/K/mol
235.72 K | 142.8 J/K/mol
236.14 K | 142.7 J/K/mol
238.66 K | 143 J/K/mol
238.73 K | 143.2 J/K/mol
239.07 K | 143 J/K/mol
240 K | 143 J/K/mol
241.6 K | 143.1 J/K/mol
242.25 K | 143.5 J/K/mol
244.54 K | 143.3 J/K/mol
245.77 K | 143.3 J/K/mol
247.48 K | 143.4 J/K/mol
249.28 K | 143.4 J/K/mol
250 K | 143.6 J/K/mol
250.41 K | 143.5 J/K/mol
252.78 K | 143.7 J/K/mol
253.34 K | 143.5 J/K/mol
256.26 K | 143.9 J/K/mol
256.28 K | 144.1 J/K/mol
259.17 K | 144 J/K/mol
260 K | 144.2 J/K/mol
261.17 K | 144.3 J/K/mol
262.1 K | 144.3 J/K/mol
262.79 K | 144.5 J/K/mol
263.79 K | 144.4 J/K/mol
265.01 K | 144.6 J/K/mol
266.68 K | 144.8 J/K/mol
267.92 K | 144.6 J/K/mol
269.56 K | 145 J/K/mol
270 K | 144.9 J/K/mol
270.82 K | 144.8 J/K/mol
272.44 K | 145.3 J/K/mol
273.71 K | 145 J/K/mol
275.31 K | 145.4 J/K/mol
276.6 K | 145.4 J/K/mol
278.16 K | 145.6 J/K/mol
279.47 K | 145.6 J/K/mol
280 K | 145.9 J/K/mol
281.01 K | 146.1 J/K/mol
283.85 K | 146.6 J/K/mol
286.68 K | 146.7 J/K/mol
289.51 K | 147 J/K/mol
290 K | 147.1 J/K/mol
292.32 K | 147.4 J/K/mol
298.15 K | 148.2 J/K/mol and 148.2 J/K/mol
300 K | 148.5 J/K/mol
301.5 K | 148.7 J/K/mol
305 K | 149 J/K/mol
